Experimental data: the supplement of paper PMC9262897, “Low-cost anti-mycobacterial drug discovery using engineered E. coli” (Nature Communications, 2022)

Key:
[1] = tested on: E. coli TESEC Mtb Alr; assay: growth (OD600 after 10 h, mean); higher = more growth;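 also: E. coli lacking its native Alr, complemented by codon-optimized Mtb Alr under a feedback-controlled arabinose-inducible plasmid circuit, grown in defined medium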
Procedure: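 TESEC Mtb Alr E. coli grown in a two-dimensional dilution series of drug (µM) and arabinose (12 to 1e8 nM). Growth is read as OD600 after 10 h; values are means of 3 biological replicates.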

[2] = tested on: Efflux+; assay: growth (OD600 after 24 h); higher = more growth
Procedure: (§1)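 E. coli BW25113 ΔaraC (Efflux+) or efflux-pump deletion strains (ΔtolC ΔentC, ΔemrE, ΔmdtI, ΔyeeO, ΔmdtK, ΔmdtM) diluted 1:100 in M9-based medium with a drug dilution series. Growth is read as OD600 after 24 h; 3 biological replicates.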

[3] = tested on: ∆mdtI; assay: growth (OD600 after 24 h); higher = more growth
Procedure: as §1

[4] = tested on: ∆emrE; assay: growth (OD600 after 24 h); higher = more growth
Procedure: as §1

[5] = tested on: ∆mdtK; assay: growth (OD600 after 24 h); higher = more growth
Procedure: as §1

[6] = tested on: ∆mdtM; assay: growth (OD600 after 24 h); higher = more growth
Procedure: as §1

[7] = tested on: ∆tolC ∆entC; assay: growth (OD600 after 24 h); higher = more growth
Procedure: as §1

[8] = tested on: ∆yeeO; assay: growth (OD600 after 24 h); higher = more growth
Procedure: as §1

CCOC(=O)[C@H](CCc1ccccc1)N[C@H]1CCc2ccccc2N(CC(=O)O)C1=O [Benazepril]
growth, [1]
Conditions	drug 15.62 µM	drug 31.25 µM	drug 62.5 µM	drug 125 µM	drug 250 µM
arabinose 12 nM	0.354	0.343	0.321	0.279	–
arabinose 24 nM	0.338	0.339	0.326	0.285	–
arabinose 48 nM	0.334	0.332	0.33	0.275	–
arabinose 95 nM	0.343	0.334	0.309	0.279	–
arabinose 191 nM	0.341	0.34	0.308	0.275	–
arabinose 381 nM	0.338	0.325	0.309	0.274	–
arabinose 763 nM	0.337	0.322	0.304	0.278	–
arabinose 1526 nM	0.333	0.322	0.305	0.275	0.185
arabinose 3052 nM	0.338	0.326	0.308	0.279	0.183
arabinose 6104 nM	0.337	0.334	0.303	0.277	0.187
arabinose 12207 nM	0.353	0.332	0.312	0.288	0.186
arabinose 24414 nM	0.352	0.348	0.309	0.297	–
arabinose 48828 nM	0.367	0.393	0.396	0.359	–
arabinose 97656 nM	0.451	0.462	0.394	0.376	–
arabinose 195312 nM	0.429	0.42	0.387	0.327	–
arabinose 390625 nM	0.344	0.35	0.346	0.289	–
arabinose 781250 nM	0.311	0.307	0.306	0.281	–
arabinose 1562500 nM	0.295	0.287	0.286	0.269	–
arabinose 3125000 nM	0.274	0.267	0.268	0.255	–
arabinose 6250000 nM	0.267	0.273	0.273	0.256	–
arabinose 12500000 nM	0.263	0.266	0.256	0.256	–
arabinose 25000000 nM	0.259	0.258	0.252	0.244	–
arabinose 50000000 nM	0.246	0.245	0.244	0.243	–
arabinose 100000000 nM	0.239	0.231	0.23	0.227	–

growth
Conditions	[2]	[3]	[4]	[5]	[6]	[7]	[8]
drug 62.5 µM	1.02	0.992	1.18	0.937	0.822	0.756	0.887
drug 125 µM	0.974	0.978	1.16	1.04	0.832	0.791	0.894
drug 250 µM	0.962	0.979	1.09	1	0.807	0.8136	0.895
drug 500 µM	0.969	0.983	1.08	1.01	0.827	0.8286	0.901
drug 1000 µM	0.977	1	1.065	0.974	0.835	0.0672	0.91
drug 2000 µM	1	1.009	1.14	0.856	0.833	0.0535	0.882
